The values that follow come from patent publication US20060247250A1 (TargeGen, Inc., priority 2005, published 2006).

The structures appear in SMILES notation. pIC50: −log10 of the molar value.

Format in all cases: biochemical
One assay deals with T1, PDGFRb (Homo sapiens, UniProt P09619).
T1 construct: purchased Panvera/Invitrogen
As to the kind of experiment: PDGFRb kinase assay, residual ATP luminescence. As to conditions: PTK2 peptide, 500 nM ATP, 60 minutes at 37 C; read-out: Pdgfrβ IC50. The procedure:
(§1) The ability of compounds of the present invention to inhibit the activity of three groups of kinases was tested. Kinases tested included the src family (primarily src and yes), the angiogenic growth factors receptors (FGFR1, PDGFRb and VEGFR2) and the ephrin, EphB4. All kinase reactions were conducted in 96-well plates with a final reaction volume of 50 ul.
PDGFRb (0.16 ug/well, Panvera/Invitrogen) 500 nM ATP and the PTK2 peptide (700 uM) were combined with compound and reaction buffer as noted above for src. The reaction was incubated for 60 minutes at 37 C, and the residual ATP concentration was determined using the luciferase-based technique also noted above.

The target of the next assay is T2, human Yes (Homo sapiens, UniProt P07947).
T2 construct: purchased Panvera/Invitrogen
As to the kind of experiment: Yes kinase inhibition, luciferase-based residual ATP (KinaseGlo). As to conditions: recombinant human Yes, ATP 3 μM, PTK2 substrate, 90 minutes at room temperature. Here is the method:
as §1
Recombinant human c-Src or Yes (28 ng/well, Panvera/Invitrogen, Madison Wis.), ATP (3 μM), a tyrosine kinase substrate (PTK2, 250 μM, Promega Corp., Madison Wis.), and test agents (at concentrations ranging from about 1 nM/l to about 100 μM/1), in the presence of Src kinase reaction buffer (Upstate USA, Lake Placid N.Y.). After reacting for about 90 minutes at room temperature, residual ATP was determined using a luciferase-based assay (KinaseGlo, Promega Corp.) as a measure of kinase activity. Data from four wells were then averaged and used to determine IC50 values for the test compounds (Prism software package, GraphPad Software, San Diego Calif.).
(In general: Kinase-Glo measures the ATP left after a reaction by luminescence.)

The target in a further assay is T3, VEGFR2 (Homo sapiens, UniProt P35968).
T3 construct: purchased Cell Signaling/ProQinase
As to the kind of experiment: VEGFR2 kinase assay, residual ATP luminescence. Conditions: VEGFR2, poly(glu4tyr), 1.5 uM ATP, 60 minutes at 37 C; read-out: Vegfr IC50. The procedure: as §1
(§2) FGFR1 and VEGFR2 kinase assays were similarly performed. FGFR1 (76 ng/well, Panvera/Invitrogen) was combined with 12.5 mg/ml poly(glu4tyr) (Sigma) and 2.5 uM ATP. VEGFR2 (14.1 U/well, Cell Signaling/ProQinase) was used with 0.3 mg/ml poly(glu4tyr) and 1.5 uM ATP. Both were incubated for 60 minutes at 37 C, and the residual ATP was measured via luminescence, per the procedure described above.

The target of the next assay is T4, FGFR1 (Homo sapiens, UniProt P11362).
T4 construct: purchased Panvera/Invitrogen
As to the kind of experiment: FGFR1 kinase assay, residual ATP luminescence. As to conditions: poly(glu4tyr), 2.5 uM ATP, 60 minutes at 37 C. Here is the method: as §1, §2

Another assay has as its target T5, EphB4 (Homo sapiens, UniProt P54760).
T5 construct: purchased Upstate
T5 sequence (P54760 16-987): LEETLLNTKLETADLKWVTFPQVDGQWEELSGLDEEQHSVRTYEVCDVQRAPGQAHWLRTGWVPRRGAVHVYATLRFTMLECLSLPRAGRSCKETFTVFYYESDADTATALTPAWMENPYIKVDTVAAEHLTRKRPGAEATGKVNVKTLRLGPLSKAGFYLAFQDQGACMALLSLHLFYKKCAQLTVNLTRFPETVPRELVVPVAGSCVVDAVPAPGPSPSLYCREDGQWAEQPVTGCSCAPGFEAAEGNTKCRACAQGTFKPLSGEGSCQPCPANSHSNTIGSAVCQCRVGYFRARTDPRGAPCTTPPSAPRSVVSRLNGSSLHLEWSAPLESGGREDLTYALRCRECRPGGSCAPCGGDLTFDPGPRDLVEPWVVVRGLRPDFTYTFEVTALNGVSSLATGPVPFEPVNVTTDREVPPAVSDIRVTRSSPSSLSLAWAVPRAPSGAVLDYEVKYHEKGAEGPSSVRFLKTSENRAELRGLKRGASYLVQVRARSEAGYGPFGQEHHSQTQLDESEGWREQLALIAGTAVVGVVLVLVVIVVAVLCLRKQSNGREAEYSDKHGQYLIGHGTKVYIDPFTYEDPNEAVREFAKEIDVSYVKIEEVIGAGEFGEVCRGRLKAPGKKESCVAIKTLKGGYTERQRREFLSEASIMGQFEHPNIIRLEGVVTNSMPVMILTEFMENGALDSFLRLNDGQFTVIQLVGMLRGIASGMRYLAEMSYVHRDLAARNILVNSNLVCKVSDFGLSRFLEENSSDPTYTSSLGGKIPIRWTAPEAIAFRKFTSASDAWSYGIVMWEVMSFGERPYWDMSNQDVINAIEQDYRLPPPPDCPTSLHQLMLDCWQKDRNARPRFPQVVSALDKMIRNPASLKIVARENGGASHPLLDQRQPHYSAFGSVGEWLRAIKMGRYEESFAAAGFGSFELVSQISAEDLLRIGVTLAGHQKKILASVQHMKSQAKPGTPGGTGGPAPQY
Description: EphB4 kinase assay, residual ATP luminescence. Conditions: poly(glu4tyr), 6 uM ATP, 60 minutes at 37 C. The procedure: as §1
EphB4 kinase activity was similarly measured, using the luciferase-based technique described above. 28.9 mU/well EphB4 (Upstate) was reacted with 1 mg/ml poly(glu4tyr), 6 uM ATP and test reagents. The reaction was incubated for 60 minutes at 37 C and the residual ATP concentration was measured.

T1 sequence (P09619 33-1106, species assumed): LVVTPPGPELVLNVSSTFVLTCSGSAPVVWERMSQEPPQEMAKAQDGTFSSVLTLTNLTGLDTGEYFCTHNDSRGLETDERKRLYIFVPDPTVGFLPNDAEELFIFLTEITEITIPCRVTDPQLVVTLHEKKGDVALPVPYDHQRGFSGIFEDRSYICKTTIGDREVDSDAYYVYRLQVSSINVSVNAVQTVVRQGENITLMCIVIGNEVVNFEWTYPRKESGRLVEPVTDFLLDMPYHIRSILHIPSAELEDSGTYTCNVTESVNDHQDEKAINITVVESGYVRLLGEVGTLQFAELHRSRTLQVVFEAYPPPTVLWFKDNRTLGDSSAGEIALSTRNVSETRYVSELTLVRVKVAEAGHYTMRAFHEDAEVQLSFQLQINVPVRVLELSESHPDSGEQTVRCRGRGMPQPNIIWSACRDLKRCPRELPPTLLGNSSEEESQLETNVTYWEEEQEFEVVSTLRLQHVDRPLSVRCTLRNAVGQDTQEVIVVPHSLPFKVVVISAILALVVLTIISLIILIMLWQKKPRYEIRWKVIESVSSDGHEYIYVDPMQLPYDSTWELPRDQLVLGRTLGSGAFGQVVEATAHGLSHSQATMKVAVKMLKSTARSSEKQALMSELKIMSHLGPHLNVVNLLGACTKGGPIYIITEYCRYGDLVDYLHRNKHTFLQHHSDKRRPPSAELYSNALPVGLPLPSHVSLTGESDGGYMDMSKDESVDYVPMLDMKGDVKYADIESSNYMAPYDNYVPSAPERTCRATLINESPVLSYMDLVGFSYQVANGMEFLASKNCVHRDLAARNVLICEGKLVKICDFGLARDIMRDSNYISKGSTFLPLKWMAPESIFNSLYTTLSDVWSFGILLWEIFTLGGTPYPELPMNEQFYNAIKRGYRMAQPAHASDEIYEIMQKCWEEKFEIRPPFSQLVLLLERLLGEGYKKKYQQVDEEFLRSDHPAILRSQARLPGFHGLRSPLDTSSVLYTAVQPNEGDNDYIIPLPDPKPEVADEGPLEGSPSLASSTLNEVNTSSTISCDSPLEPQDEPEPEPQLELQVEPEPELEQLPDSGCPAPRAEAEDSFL
T3 sequence (P35968 20-1356, species assumed): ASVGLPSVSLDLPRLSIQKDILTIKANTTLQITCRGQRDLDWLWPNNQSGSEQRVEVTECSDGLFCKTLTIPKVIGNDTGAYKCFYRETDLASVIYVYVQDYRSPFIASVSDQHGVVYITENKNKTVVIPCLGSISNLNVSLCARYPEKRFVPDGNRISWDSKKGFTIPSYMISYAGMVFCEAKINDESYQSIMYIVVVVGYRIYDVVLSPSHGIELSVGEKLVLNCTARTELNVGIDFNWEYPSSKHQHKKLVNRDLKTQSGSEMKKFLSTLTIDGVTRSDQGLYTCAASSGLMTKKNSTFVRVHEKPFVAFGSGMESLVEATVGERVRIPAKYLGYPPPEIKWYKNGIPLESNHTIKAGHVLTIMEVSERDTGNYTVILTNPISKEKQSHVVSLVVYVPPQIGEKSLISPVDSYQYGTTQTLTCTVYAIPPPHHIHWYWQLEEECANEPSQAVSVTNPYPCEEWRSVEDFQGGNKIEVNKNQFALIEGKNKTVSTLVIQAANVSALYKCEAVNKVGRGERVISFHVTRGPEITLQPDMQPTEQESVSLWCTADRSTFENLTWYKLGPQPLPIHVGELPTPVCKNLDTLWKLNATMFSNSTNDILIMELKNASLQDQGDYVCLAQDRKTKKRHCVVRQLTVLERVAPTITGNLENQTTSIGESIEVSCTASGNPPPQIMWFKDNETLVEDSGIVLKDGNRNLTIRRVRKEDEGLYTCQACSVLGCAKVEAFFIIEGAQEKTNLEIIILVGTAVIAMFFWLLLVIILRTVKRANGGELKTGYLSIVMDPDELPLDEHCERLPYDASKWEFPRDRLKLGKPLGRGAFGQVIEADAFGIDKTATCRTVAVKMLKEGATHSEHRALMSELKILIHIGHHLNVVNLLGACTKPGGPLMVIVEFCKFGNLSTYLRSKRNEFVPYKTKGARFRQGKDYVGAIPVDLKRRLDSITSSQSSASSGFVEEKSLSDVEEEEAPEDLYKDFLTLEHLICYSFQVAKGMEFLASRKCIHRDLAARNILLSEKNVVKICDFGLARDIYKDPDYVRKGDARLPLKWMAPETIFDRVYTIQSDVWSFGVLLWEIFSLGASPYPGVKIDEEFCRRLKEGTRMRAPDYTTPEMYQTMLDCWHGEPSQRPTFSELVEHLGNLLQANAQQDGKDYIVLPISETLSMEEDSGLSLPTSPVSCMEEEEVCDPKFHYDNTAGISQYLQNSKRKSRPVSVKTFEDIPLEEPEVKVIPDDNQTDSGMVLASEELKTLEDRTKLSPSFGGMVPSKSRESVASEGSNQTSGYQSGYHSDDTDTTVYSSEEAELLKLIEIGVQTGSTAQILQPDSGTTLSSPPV
T2 sequence (P07947 whole entry): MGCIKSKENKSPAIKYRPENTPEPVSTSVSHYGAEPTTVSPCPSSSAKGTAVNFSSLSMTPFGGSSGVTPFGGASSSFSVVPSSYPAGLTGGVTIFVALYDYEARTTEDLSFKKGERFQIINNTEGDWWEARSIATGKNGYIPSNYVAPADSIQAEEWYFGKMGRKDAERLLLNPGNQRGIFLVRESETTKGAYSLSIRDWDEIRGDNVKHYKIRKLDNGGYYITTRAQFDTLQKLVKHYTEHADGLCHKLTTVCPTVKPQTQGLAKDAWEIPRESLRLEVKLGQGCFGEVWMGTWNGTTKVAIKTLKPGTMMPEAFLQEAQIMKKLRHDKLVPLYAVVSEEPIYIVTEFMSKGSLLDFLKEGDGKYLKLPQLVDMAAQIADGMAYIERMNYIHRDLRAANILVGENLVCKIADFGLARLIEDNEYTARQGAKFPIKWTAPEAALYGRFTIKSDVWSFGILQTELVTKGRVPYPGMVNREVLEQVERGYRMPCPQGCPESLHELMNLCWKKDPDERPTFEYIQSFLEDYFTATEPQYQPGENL
T4 sequence (P11362 22-822, species assumed): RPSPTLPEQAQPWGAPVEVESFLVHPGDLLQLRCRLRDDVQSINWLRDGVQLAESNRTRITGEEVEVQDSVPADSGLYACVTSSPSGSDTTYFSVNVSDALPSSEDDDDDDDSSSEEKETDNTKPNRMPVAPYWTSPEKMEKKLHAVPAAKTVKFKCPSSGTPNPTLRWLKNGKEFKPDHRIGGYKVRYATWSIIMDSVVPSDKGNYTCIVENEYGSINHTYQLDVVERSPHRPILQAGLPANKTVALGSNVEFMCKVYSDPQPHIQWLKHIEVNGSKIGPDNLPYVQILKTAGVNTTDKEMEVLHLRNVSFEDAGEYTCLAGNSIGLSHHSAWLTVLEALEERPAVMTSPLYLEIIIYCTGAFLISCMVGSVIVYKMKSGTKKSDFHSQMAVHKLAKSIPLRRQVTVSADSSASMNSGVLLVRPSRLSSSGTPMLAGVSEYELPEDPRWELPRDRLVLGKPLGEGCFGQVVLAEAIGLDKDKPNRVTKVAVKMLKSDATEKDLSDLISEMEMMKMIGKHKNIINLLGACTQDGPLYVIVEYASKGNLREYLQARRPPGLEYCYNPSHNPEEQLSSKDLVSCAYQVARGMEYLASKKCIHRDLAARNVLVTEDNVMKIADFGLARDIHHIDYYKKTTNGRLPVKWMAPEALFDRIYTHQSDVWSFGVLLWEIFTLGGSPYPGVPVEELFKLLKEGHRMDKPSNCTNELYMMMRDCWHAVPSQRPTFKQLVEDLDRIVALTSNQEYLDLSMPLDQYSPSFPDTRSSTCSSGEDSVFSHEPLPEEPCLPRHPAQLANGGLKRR

In the case of `O=C(NCCN1CCCC1)c1ccc(Nc2ncc(NC(=O)c3cc(O)ccc3Cl)cn2)cn1` [drawing 204], the pIC50 at PDGFRb is 7.89; at human Yes, 8.51; at VEGFR2, 6.06; at FGFR1 it was 6.00; against EphB4, 7.05.
For `O=C(NCCN1CCCC1)c1ccc(Nc2ncc(NC(=O)c3cc(O)ccc3Cl)cn2)cc1` [drawing 208], in that order: 8.20, 8.36, 6.59, 5.09 and 7.23.
For `CC(C)N(CCO)C(=O)c1ccc(Nc2ncc(NC(=O)c3cc(O)ccc3Cl)cn2)cc1` [drawing 210], in that order: 6.86, 8.22, less than 5.00, less than 5.00 and 6.72.

What is called pIC50 is the IC50 on a negative log10 scale, so that one unit is a factor of ten.
